Test results reported in patent publication EP4273147A1, “SUBSTITUTED SPIROLACTAMS, SALTS THEREOF AND THEIR USE AS HERBICIDALLY ACTIVE SUBSTANCES” (Bayer Aktiengesellschaft, priority 2022, dated 2023).

What was measured:
VERPE [1] = assay: Herbicidal post-emergence action (Table B10); type: in vivo, Veronica persica; conditions: application rate 1280 g/ha
In short: (§1)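 Plants grown from seed in a greenhouse are treated at the one-leaf stage, two to three weeks after sowing. They then stay under optimum growth conditions for about three weeks before herbicidal activity is scored visually on a 0–100% scale against untreated controls.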

ALOMY [2] = assay: Herbicidal post-emergence action (Table B2); type: in vivo, Alopecurus myosuroides; conditions: application rate 1280 g/ha; rated visually after about 3 weeks
In short: as §1

SETVI [3] = assay: Herbicidal pre-emergence action, section C (Table C10); type: in vivo, Setaria viridis; conditions: application rate 80 g/ha; visual grading after ca. 3 weeks
SETVI [4] = assay: Herbicidal pre-emergence action (Table A5); type: in vivo, Setaria viridis; conditions: application rate 1280 g/ha; visual grading after ca. 3 weeks
In short: (§2)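 Sown in sandy loam in pots and covered with soil: weed seeds, two species per pot, one of each plant class (mono- and dicotyledonous).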

ECHCG [5] = assay: Herbicidal pre-emergence action (Table A2); type: in vivo, Echinochloa crus-galli; conditions: application rate 320 g/ha; visual grading after ca. 3 weeks
In short: as §2

TRZAS = assay: Post-emergence effects on crop plants (Table F2); type: in vivo, Triticum aestivum; conditions: application rate 320 g/ha, crop plant TRZAS
From the text: (§3) 2 to 3 weeks after sowing, the test plants were sprayed in the single-leaf stage.

VIOTR = assay: Herbicidal pre-emergence action, section C (Table C12); type: in vivo, Viola tricolor; conditions: application rate 80 g/ha; visual grading after ca. 3 weeks
LOLRI [6] = assay: Herbicidal pre-emergence action, section C (Table C7); type: in vivo, Lolium rigidum; conditions: application rate 320 g/ha; visual grading after ca. 3 weeks
KCHSC = assay: Herbicidal pre-emergence action (Table A10); type: in vivo, Kochia scoparia; conditions: application rate 1280 g/ha; visual grading after ca. 3 weeks
In short: as §2

SETVI [7] = assay: Herbicidal post-emergence action (Table B8); type: in vivo, Setaria viridis; conditions: application rate 1280 g/ha
In short: as §1

ABUTH [8] = assay: Herbicidal pre-emergence action, section C (Table C1); type: in vivo, Abutilon theophrasti; conditions: application rate 320 g/ha; visual grading after ca. 3 weeks
ECHCG [9] = assay: Herbicidal post-emergence action (Table B3); type: in vivo, Echinochloa crus-galli; conditions: Echinochloa crus-galli, post-emergence, 504 h; application rate 1280 g/ha; rated visually after about 3 weeks; read-out: post-emergence activity against ECHCG
In short: as §1

POLCO = assay: Herbicidal pre-emergence action, section C (Table C9); type: in vivo, Polygonum convolvulus; conditions: application rate 320 g/ha; visual grading after ca. 3 weeks
SETVI [10] = assay: Herbicidal post-emergence action, section E (Table E8); type: in vivo, Setaria viridis; conditions: application rate 320 g/ha; assessed visually after ca. 3 weeks
From the text: as §3

ECHCG [11] = assay: Herbicidal pre-emergence action, section C (Table C6); type: in vivo, Echinochloa crus-galli; conditions: application rate 80 g/ha; visual grading after ca. 3 weeks
ABUTH [12] = assay: Herbicidal pre-emergence action (Table A1); type: in vivo, Abutilon theophrasti; conditions: application rate 1280 g/ha; visual grading after ca. 3 weeks vs untreated controls (100% = plants have died off, 0% = as control plants)
In short: as §2

VERPE [13] = assay: Herbicidal pre-emergence action, section C (Table C11); type: in vivo, Veronica persica; conditions: application rate 320 g/ha; visual grading after ca. 3 weeks
ALOMY [14] = assay: Herbicidal post-emergence action, section E (Table E2); type: in vivo, Alopecurus myosuroides; conditions: application rate 80 g/ha; assessed visually after ca. 3 weeks
From the text: as §3

ABUTH [15] = assay: Herbicidal post-emergence action, section E (Table E1); type: in vivo, Abutilon theophrasti; conditions: application rate 320 g/ha; assessed visually after ca. 3 weeks
From the text: as §3

VERPE [16] = assay: Herbicidal pre-emergence action (Table A11); type: in vivo, Veronica persica; conditions: application rate 1280 g/ha; visual grading after ca. 3 weeks
In short: as §2

MATIN [17] = assay: Herbicidal pre-emergence action (Table A4); type: in vivo, Matricaria inodora; conditions: application rate 320 g/ha; visual grading after ca. 3 weeks
In short: as §2

POAAN [18] = assay: Herbicidal post-emergence action (Table B7); type: in vivo, Poa annua; conditions: application rate 1280 g/ha
In short: as §1

MATIN [19] = assay: Herbicidal pre-emergence action, section C (Table C8); type: in vivo, Matricaria inodora; conditions: application rate 320 g/ha; visual grading after ca. 3 weeks
From the text: Seeds of mono- and dicotyledonous weed plants and crop plants were sown, in plastic or organic planting pots, in sandy loam and covered with soil. The compounds according to the invention, formulated in the form of wettable powders (WP) or as emulsifiable concentrates (EC), were applied to the surface of the covering soil as aqueous suspension or emulsion, with the addition of 0.5% of an additive, at an application rate of 600 1 of water/ha (converted). Following treatment, the pots were placed in a greenhouse and kept under optimum growth conditions for the test plants.

ORYZA = assay: Post-emergence effects on crop plants (Table F3); type: in vivo, Oryza sativa; conditions: application rate 80 g/ha, crop plant ORYZA
From the text: as §3

ALOMY [20] = assay: Herbicidal pre-emergence action (Table A9); type: in vivo, Alopecurus myosuroides; conditions: application rate 1280 g/ha; visual grading after ca. 3 weeks
In short: as §2

POAAN [21] = assay: Herbicidal pre-emergence action (Table A7); type: in vivo, Poa annua; conditions: Poa annua, pre-emergence, 504 h; application rate 1280 g/ha; visual grading after ca. 3 weeks; read-out: pre-emergence activity against POAAN
In short: as §2

ECHCG [22] = assay: Herbicidal post-emergence action, section E (Table E5); type: in vivo, Echinochloa crus-galli; conditions: application rate 320 g/ha; assessed visually after ca. 3 weeks
From the text: as §3

LOLRI [23] = assay: Herbicidal pre-emergence action (Table A3); type: in vivo, Lolium rigidum; conditions: Lolium rigidum, pre-emergence, 504 h, application rate 320 g/ha; visual grading after ca. 3 weeks; read-out: pre-emergence activity against LOLRI
In short: as §2

BRSNW = assay: Post-emergence effects on crop plants (Table F5); type: in vivo, Brassica napus; conditions: application rate 320 g/ha, crop plant BRSNW
From the text: as §3

ALOMY [24] = assay: Herbicidal pre-emergence action, section C (Table C2); type: in vivo, Alopecurus myosuroides; conditions: application rate 320 g/ha; visual grading after ca. 3 weeks

O=C1N(Cc2ccccc2)CCCC12CCCN(Cc1ccccc1F)C2=O (racemic) [I-010, 2-benzyl-8-(2-fluorobenzyl)-2,8-diazaspiro[5.5]undecane-1,7-dione]
100%: pre-emergence activity against SETVI (SETVI [3]) | pre-emergence activity against ECHCG (ECHCG [5]) | pre-emergence activity against LOLRI (LOLRI [6]) | pre-emergence activity against ECHCG (ECHCG [11]) | pest or weed control at 1280 g/ha (POAAN [21]) | pest or weed control at 320 g/ha (LOLRI [23]) | pre-emergence activity against ALOMY (ALOMY [24])
0%: post-emergence activity against TRZAS (TRZAS) | post-emergence activity against ORYZA (ORYZA) | post-emergence activity against BRSNW (BRSNW)
90%: post-emergence activity against VERPE (VERPE [1]) | post-emergence activity against ALOMY (ALOMY [2]) | pre-emergence activity against SETVI (SETVI [4]) | pre-emergence activity against KCHSC (KCHSC) | post-emergence activity against SETVI (SETVI [7]) | pre-emergence activity against ABUTH (ABUTH [8]) | pest or weed control at 1280 g/ha (ECHCG [9]) | pre-emergence activity against ABUTH (ABUTH [12]) | pre-emergence activity against VERPE (VERPE [16]) | pre-emergence activity against MATIN (MATIN [17]) | post-emergence activity against POAAN (POAAN [18]) | pre-emergence activity against MATIN (MATIN [19]) | pre-emergence activity against ALOMY (ALOMY [20]) | post-emergence activity against ECHCG (ECHCG [22])
80%: pre-emergence activity against VIOTR (VIOTR) | pre-emergence activity against POLCO (POLCO) | post-emergence activity against SETVI (SETVI [10]) | pre-emergence activity against VERPE (VERPE [13]) | post-emergence activity against ALOMY (ALOMY [14]) | post-emergence activity against ABUTH (ABUTH [15])
